# Marks after values point to notes of the source that are not given here.
# What was measured:
# [1] = test system: human skin; assay: Theophylline permeation through human skin in Franz diffusion cells with co-applied enhancer; type: in vitro ADME; conditions: 1% enhancer co-applied with 5% TH in 60% PG; for CDERMIS, theophylline concentration in dermis / CEPIDERMIS, theophylline concentration in epidermis: after 48 h permeation, mean ± SEM; for ER, enhancement ratio of theophylline flux (fold increase in flux over control): human skin in vitro
# Experimental: The prepared enhancers were applied at 1% in 60% aqueous propylene glycol (PG) to human skin in vitro; 60% PG was used as a negative control. PG was selected for its synergy with amphiphilic enhancers. Each model drug was co-applied with the enhancer at infinite dose.
# Donor samples for reversibility and infrared studies contained 1% enhancer in 60% PG. All samples were thoroughly mixed, incubated at 32 °C for 24 h, and, if needed, carefully resuspended before applying on the skin. The effects of the studied enhancers on the solubility of model drugs were assessed as described previously.
# The permeation-enhancing potencies of the prepared compounds were evaluated on human skin in Franz diffusion cells. Human skin was slowly thawed, cut into 2 × 2 cm pieces, fixed in Teflon holders with 1-cm^2 circular permeation areas, and mounted into Franz cells epidermal side up. The acceptor compartment (15.9 ± 0.1 ml) was filled with phosphate-buffered saline at pH 7.4 with 0.005% gentamicin (PBS) and stirred at 32 °C throughout the experiment. The skin integrity was checked by electrical impedance (any skin sample with the impedance < 10 kΩ was excluded). Then, 100 µl of a donor sample (infinite dose) was applied to the skin and covered with a glass slide. Acceptor phase samples (300 µl) were collected at predetermined time intervals for 48 h, to reach steady-state and were replaced by the same volume of fresh PBS. […] The drug concentrations were measured by HPLC (see supplementary data).
# The flux of the model drug through the skin Jss (µg/cm^2/h) was calculated from the linear region of this plot. The enhancement ratio (ER) was calculated as the ratio of flux with and without an enhancer.
# After the permeation experiment, the cells were dismounted, the skin was carefully washed with PBS, and the permeation area of the skin (1 cm^2) was punched off. After heating the skin fragments to 80 °C for 1 min, the epidermis (E) was peeled off the dermis (D), individually weighed and extracted by 1 and 2 ml, respectively, of an extraction solvent (identical to the mobile phase for the drug HPLC analysis, see supplementary data) for 24 h. The drug concentration was measured by HPLC (see supplementary data).
# [2] = test system: human skin; assay: Transepidermal water loss (TEWL) of human skin in vitro, reversibility; conditions: for TEWL 1 h after the sample had been removed / TEWL 4 h after the sample had been removed / TEWL 8 h after the sample had been removed / TEWL 12 h after the sample had been removed / TEWL 24 h after the sample had been removed: 24-h application of 1% enhancer (1% Azone, 5% SDS) in 60% PG; for TEWL 1 h after the sample had been removed / TEWL 4 h after the sample had been removed / TEWL 8 h after the sample had been removed / TEWL 12 h after the sample had been removed / TEWL 24 h after the sample had been removed / TEWL before sample application (baseline): mean ± SEM; for TEWL values after 24-h treatment (range over the three enhancers): 1% in 60% PG, baseline around 27 g/m^2/h; for time after enhancer removal for TEWL to decline to values similar to baseline: after 24-h application of 1% enhancer in 60% PG
# Source text: We further investigated the direct effects of the selected enhancers on the skin barrier assessed by TEWL and the electrical impedance of human skin in vitro. TEWL is a method commonly used in dermatology[38] to study, for example, the irritant potential of chemicals, skin barrier recovery, or effect of topical formulations, and permeation enhancers[17],[21],[41]–[44]. Electrical impedance measures the opposition of the skin to alternating electrical current and is inversely proportional to the flux of ions. Thus, increased TEWL or decreased impedance indicates a barrier impairment[45],[46]. Electrical impedance or conductance measurements have been used to screen new enhancers or assess the irritation potential of compounds[13],[15],[17],[21],[32],[44],[47]–[50]. Both TEWL and impedance can distinguish between reversible and irreversible effects of enhancers on skin permeability[17],[21],[40],[44],[51].
# Human skin was mounted in Franz diffusion cells in the same way as for the permeation studies. After 1-h equilibration, basal TEWL and impedance values were recorded. Then, 1% enhancer in 60% PG, 60% PG as a negative control, 1% Azone in 60% PG, or 5% SDS in 60% PG as positive (irreversible) controls was applied on the skin (100 µl/cm^2) for 24 h. The residual sample was washed with PBS and gently blotted dry. At 1, 4, 8, 12, and 24 h after sample removal, TEWL, and impedance values were recorded. TEWL was measured using AquaFlux AF 200 (Biox Systems Ltd, London, UK), employing the condenser-chamber measurement method at 26 ± 1.0 °C and 43 ± 3% relative air humidity. Electrical impedance was measured by LCR meter 4080 (Conrad electronic, Hirschau, Germany, measuring range 20 Ω–10 MΩ, error at kΩ values < 0.5%) operated in parallel mode with an alternating frequency of 120 Hz, which was also used in our previous work[21],[44].
# Samples were removed from the skin after 24 h, and TEWL and impedance values were recorded in predetermined time intervals (1, 4, 8, 12, and 24 h after sample removal). Data are presented as the means ± SEM; n ≥ 3. * statistically significant difference compared to the baseline value before the sample application at p < 0.05. ^+ statistically significant compared to the value 1 h after the sample removal at p < 0.05.^ ≠ statistically significant compared to the control (60% PG without enhancer) at the same time point, at p < 0.05.
SMILES,"CDERMIS, theophylline concentration in dermis [1]","CEPIDERMIS, theophylline concentration in epidermis [1]","ER, enhancement ratio of theophylline flux (fold increase in flux over control) [1]",TEWL 1 h after the sample had been removed [2],TEWL 4 h after the sample had been removed [2],TEWL 8 h after the sample had been removed [2],TEWL 12 h after the sample had been removed [2],TEWL 24 h after the sample had been removed [2],TEWL values after 24-h treatment (range over the three enhancers) [2],"reversibility of TEWL increase ([2]; after 24-h application, followed 24 h after removal)",TEWL before sample application (baseline) [2],time after enhancer removal for TEWL to decline to values similar to baseline [2]
"CCCCCCCCCCCCOC(=O)C1CCCN1C(C)=O (stereo not drawn) [Pro2, N-acetyl proline dodecyl ester]",0.37 ± 0.02 µg/mg,1.04 ± 0.11 µg/mg,28,65.4 ± 1.5*^≠ g/m^2/h,56.0 ± 1.3*^≠ g/m^2/h,45.9 ± 1.5*^≠+ g/m^2/h,42.5 ± 2.5*^≠+ g/m^2/h,41.8 ± 1.0*^≠+ g/m^2/h,50–65 g/m^2/h,only partly reversible within 24 h,25.0 ± 3.0 g/m^2/h,
CCCCCCCCCCCCOC(=O)C1CCCN1C(=O)CC (stereo not drawn) [Pro3],0.32 ± 0.03 µg/mg,1.11 ± 0.17 µg/mg,31,59.4 ± 5.6*^≠ g/m^2/h,47.1 ± 1.7*^≠+ g/m^2/h,36.5 ± 1.1^+ g/m^2/h,30.2 ± 2.2^+ g/m^2/h,27.4 ± 2.2^+ g/m^2/h,50–65 g/m^2/h,,27.5 ± 6.3 g/m^2/h,≤ 8 h
CCCCCCCCCCCCOC(=O)C1CCCN1C(=O)CCC (stereo not drawn) [Pro4],0.25 ± 0.01 µg/mg,0.83 ± 0.08 µg/mg,25,49.9 ± 5.2*^≠ g/m^2/h,39.4 ± 2.5*^+ g/m^2/h,30.5 ± 1.3^+ g/m^2/h,26.3 ± 1.8^+ g/m^2/h,25.0 ± 2.8^+ g/m^2/h,50–65 g/m^2/h,,27.3 ± 4.1 g/m^2/h,≤ 8 h
